Each block holds one molecule with its values, some of them ahead of it.
Key:
[1] = Persistence of the imine impurity HPLC-MS peak in acidic aqueous media; assay type: physicochemical; conditions: X4P-001 solubilized in acidic aqueous media
Description: The imine impurity, I-1, and likely route of formation are shown in Scheme 1, below.

[2] = Mutagenic Risk Assessment in accordance with ICH M7(R1); conditions: impurities in the synthetic process for X4P-001
Experimental: The assessment included review of all raw materials, including key starting materials, as well as the potential and actual process impurities and degradation products. All assessments were carried out in accordance with ICH M7(R1) guidance.

in vivo = conditions: terminal half-life
[3] = in vivo
[4] = tested on: advanced clear-cell renal cell carcinoma; conditions: cited from earlier work; for objective response rate: nivolumab 3 mg/kg intravenously every two weeks or everolimus 10 mg tablet orally daily, previously treated patients, P<0.001
[5] = nivolumab compared to everolimus

stability of the impurity peak (RRT 1.13) [1]: disappears after a few hours
Molecule: C=NCCCCN(Cc1nc2ccccc2[nH]1)[C@H]1CCCc2cccnc21 [I-1, (S)-N-((1H-benzo[d]imidazol-2-yl)methyl)-N-(4-(methyleneamino)butyl)-5,6,7,8-tetrahydroquinolin-8-amine]

Molecule: ClCc1nc2ccccc2[nH]1 [I-8, 2-chloromethylbenzimidazole]
mutagenicity assessment [2]: potentially mutagenic

Molecule: CC(C)(C)OC(=O)n1c(CCl)nc2ccccc21 [I-9, boc-2-chloromethylbenzimidazole]
mutagenicity assessment [2]: potentially mutagenic

Molecule: ICc1nc2ccccc2[nH]1 [I-10]
mutagenicity assessment [2]: potentially mutagenic

Molecule: CC(C)(C)OC(=O)n1c(CI)nc2ccccc21 [I-11]
mutagenicity assessment [2]: potentially mutagenic

half-life (in vivo): 720 to 1440 min
terminal half-life [3]: approximately 14.5 hrs
Molecule: NCCCCN(Cc1nc2ccccc2[nH]1)[C@H]1CCCc2cccnc21 [X4P-001]

Molecule: CO[C@H]1C[C@@H]2CC[C@@H](C)[C@@](O)(O2)C(=O)C(=O)N2CCCC[C@H]2C(=O)O[C@H]([C@H](C)C[C@@H]2CC[C@@H](OCCO)[C@H](OC)C2)CC(=O)[C@H](C)/C=C(\C)[C@@H](O)[C@@H](OC)C(=O)[C@H](C)C[C@H](C)/C=C/C=C/C=C/1C [everolimus]
objective response rate [4]: 5%

Molecule: nivolumab: fully human IgG4 monoclonal antibody binding to the programmed cell death 1 (PD-1) receptor
objective response rate [4]: 25%
hazard ratio for death [4, 5]: decreased
incidence of Grade 3 or 4 treatment-related adverse events [4, 5]: lower
median overall survival [4, 5]: longer
